Among the test systems are Escherichia coli K91BK; Bibersteinia trehalosi; Klebsiella pneumoniae; Aspergillus fumigatus; Pasteurella multocida; Staphylococcus aureus; Salmonella sp.; Escherichia coli; Yersinia enterocolitica; Escherichia coli O111.
What all share (experiment): ≥ marks a high value that may be exact or a test limit, other limits are often not marked, values filed in µg/mL are converted to µM
For test [1], the system named is Escherichia coli ATCC 25922.
Test [2] relates to Staphylococcus aureus FDA 209P.
Test [3] has as its system Pseudomonas aeruginosa ATCC 27853.
Test [4] relates to Staphylococcus aureus SH1000.
Test [5] concerns Klebsiella pneumoniae ATCC 700603.
The subject of test [6] is Cryptococcus neoformans ATCC 208821.
Test [7] relates to Candida albicans ATCC 90028.
Test [8] concerns Acinetobacter baumannii ATCC 19606.
The subject of test [9] is Staphylococcus aureus ATCC 43300.
For test [10], the system named is Bacillus subtilis var. niger ATCC 9372.
Test [11] relates to Bacillus anthracis Sterne 34F2.
In test [12] the test system is Salmonella enterica subsp. arizonae.
For test [13], the system named is Mannheimia haemolytica Serovar 1.
Test [14] concerns Pseudomonas aeruginosa PAO1.
In test [15] the test system is Mannheimia haemolytica Serovar 6.
Test [16] relates to Mannheimia haemolytica Serovar 2.
Test [17] deals with Corynebacterium pseudotuberculosis ATCC 19410.
The subject of test [18] is Salmonella enterica subsp. enterica serovar Enteritidis.
Test [19] concerns Staphylococcus aureus ATCC 29213.
The test system of test [20] is Bacillus subtilis ATCC 6633.

Data on 9 molecules can be found in DBAASP.

Molecules are shown by their SMILES. ≈ marks a conversion by molar mass, not a printed value.

In general, MIC refers to the least concentration at which growth counts as inhibited. A lower MIC goes with greater potency. As to `CC[C@H](C)[C@H](NC(=O)CN)C(=O)N[C@@H](Cc1ccccc1)C(=O)N[C@H](C(=O)N[C@@H](CC(C)C)C(=O)N[C@@H](Cc1ccccc1)C(=O)N[C@@H](CCCCN)C(=O)NCC(=O)N[C@@H](C)C(=O)N[C@@H](C)C(=O)N[C@@H](CCCCN)C(=O)N[C@@H](CC(C)C)C(=O)N[C@@H](CC(C)C)C(=O)NCC(=O)N[C@@H](CCCCN)C(=O)N[C@H](C(=O)N[C@@H](CC(C)C)C(=O)N[C@@H](C)C(=O)N[C@@H](CCCCN)C(=O)N[C@@H](CCC(=O)O)C(=O)N[C@@H](C)C(=O)NCC(=O)N[C@@H](CCCCN)C(=O)N[C@H](C(=O)NCC(=O)N[C@@H](CC(C)C)C(=O)N[C@@H](CCC(=O)O)C(=O)N[C@@H](CC(C)C)C(=O)N[C@@H](CCSC)C(=O)N[C@@H](C)C(=O)N[C@H]1CSSC[C@@H](C(=O)O)NC(=O)[C@H](CCC(N)=O)NC(=O)[C@H](CC(N)=O)NC(=O)[C@H]([C@@H](C)O)NC(=O)[C@H](C(C)C)NC(=O)[C@H](CCCCN)NC1=O)[C@@H](C)O)[C@@H](C)O)[C@@H](C)O` [GIFTLFKGAAKLLGKTLAKEAGKTGLELMACKVTNQC], the MIC in [1] worked out at 2.8 µM (≈ 10.8 µg/mL); in test [2], 4.4 µM (≈ 17 µg/mL).
For the molecule `CC[C@H](C)[C@H](NC(=O)[C@H](CC(=O)O)NC(=O)[C@H](Cc1ccccc1)NC(=O)[C@H](CC(C)C)NC(=O)CN)C(=O)N[C@H](C(=O)N[C@@H](CCCCN)C(=O)N[C@@H](CCCCN)C(=O)N[C@H](C(=O)N[C@@H](CC(C)C)C(=O)N[C@@H](CCCCN)C(=O)N[C@@H](CC(C)C)C(=O)N[C@@H](CC(C)C)C(=O)N[C@@H](CCCCN)C(N)=O)C(C)C)C(C)C` [GLFDIVKKVLKLLK], the MIC was above 20 µM in [3]; above 20 µM in [1]; 3.3 µM (≈ 5.32 µg/mL) in test [4]; above 20 µM in test [5]; 20 µM (≈ 32.3 µg/mL) in [6]; 20 µM (≈ 32.3 µg/mL) in [7]. The MIC in test [8] and in [9] was above 20 µM in each case.
With `CC[C@H](C)[C@H](NC(=O)[C@H](CC(=O)O)NC(=O)[C@H](Cc1ccccc1)NC(=O)[C@H](CC(C)C)NC(=O)CN)C(=O)N[C@H](C(=O)N[C@@H](CCCCN)C(=O)N[C@@H](CCCCN)C(=O)N[C@H](C(=O)N[C@H](C(=O)NCC(=O)N[C@@H](C)C(=O)N[C@@H](CC(C)C)C(=O)N[C@@H](CCCCN)C(N)=O)C(C)C)C(C)C)C(C)C` [GLFDIVKKVVGALK], the MIC was above 22 µM in [3]; above 22 µM in test [1]; at least 33 µM in test [4]; above 22 µM in test [5]; 22 µM (≈ 32.7 µg/mL) in test [6]; 22 µM (≈ 32.7 µg/mL) in [7]. Also, the MIC in test [8] and in test [9] was above 22 µM throughout.
As to `CC(=O)N[C@@H](CCCCN)C(=O)N[C@@H](CCCCN)C(=O)N[C@@H](Cc1c[nH]c2ccccc12)C(=O)N[C@@H](CCCCN)C(=O)N[C@@H](CCCCN)C(=O)N[C@@H](Cc1c[nH]c2ccccc12)C(=O)N[C@@H](CCCCN)C(=O)N[C@@H](CCCCN)C(=O)N[C@@H](Cc1c[nH]c2ccccc12)C(=O)N[C@@H](CCCCN)C(=O)N[C@@H](CCCCN)C(N)=O` [KKWKKWKKWKK], the figures for the MIC (in test [10]; against Escherichia coli K91BK; in [11]) were at least 50 µM, at least 100 µM and at least 100 µM, respectively.
As for `CC[C@H](C)[C@H](NC(=O)[C@H](CC(N)=O)NC(=O)[C@H](CCCCN)NC(C)=O)C(=O)N[C@@H](CCCN=C(N)N)C(=O)N[C@@H](CCCN=C(N)N)C(=O)N[C@H](C(=O)N[C@H](C(=O)N[C@@H](CCCN=C(N)N)C(=O)N[C@@H](CCCCN)C(=O)N[C@H](C(=O)N[C@H](C(=O)N[C@@H](Cc1cnc[nH]1)C(=O)N[C@H](C(=O)N[C@H](C(=O)N[C@@H](CCCCN)C(=O)N[C@@H](CCCCN)C(=O)N[C@@H](Cc1ccc(O)cc1)C(=O)NCC(N)=O)[C@@H](C)CC)[C@@H](C)CC)[C@@H](C)CC)[C@@H](C)CC)[C@@H](C)CC)[C@@H](C)CC` [KNIRRIIRKIIHIIKKYG], the minimal inhibitory concentration (MIC) is 0.93 µM (≈ 2.14 µg/mL) in test [10], at least 100 µM in the test with Escherichia coli K91BK and 6.25 µM (≈ 14.4 µg/mL) in test [11].
In the case of `CC[C@H](C)[C@H](NC(=O)[C@H](Cc1cnc[nH]1)NC(=O)[C@@H](NC(=O)[C@@H](NC(=O)[C@H](CCCCN)NC(=O)[C@H](CCCN=C(N)N)NC(=O)[C@@H](NC(=O)[C@@H](NC(=O)[C@@H](N)CCCN=C(N)N)[C@@H](C)CC)[C@@H](C)CC)[C@@H](C)CC)[C@@H](C)CC)C(=O)N[C@H](C(=O)N[C@@H](CCCCN)C(N)=O)[C@@H](C)CC` [RIIRKIIHIIK], the MIC came out at 14.3 µM (≈ 20 µg/mL) in test [12]; 14.3 µM (≈ 20 µg/mL) in test [13]; 3.56 µM (≈ 5 µg/mL) in [14]; 14.3 µM (≈ 20 µg/mL) in the test with Bibersteinia trehalosi; 7.13 µM (≈ 9.99 µg/mL) in test [15]; 7.13 µM (≈ 9.99 µg/mL) in [16]. Also, the MIC is 9.48 µM (≈ 13.3 µg/mL) in the test on Klebsiella pneumoniae; 28.5 µM (≈ 40 µg/mL) with Aspergillus fumigatus; 14.3 µM (≈ 20 µg/mL) in [17]; 14.3 µM (≈ 20 µg/mL) against Pasteurella multocida; above 14.3 µM against Staphylococcus aureus.
For the molecule `CC[C@H](C)[C@H](NC(=O)[C@H](CCC(N)=O)NC(=O)[C@@H](N)CCCN=C(N)N)C(=O)N[C@H](C(=O)N[C@@H](CCCN=C(N)N)C(=O)N[C@@H](CCCN=C(N)N)C(=O)N[C@@H](CCSC)C(=O)N[C@@H](CCC(N)=O)C(=O)N[C@@H](CCCN=C(N)N)C(N)=O)[C@@H](C)CC` [RQIIRRMQR], the MIC in test [1] was above 39.8 µM; in the test on Salmonella sp., at least 39.8 µM; in test [18] it was at least 39.8 µM; in test [19], above 39.8 µM; in the test with Escherichia coli it was above 39.8 µM; in the test with Yersinia enterocolitica, at least 39.8 µM. The molecule also had an MIC in [9] above 39.8 µM.
Take `CC[C@H](C)[C@H](NC(=O)[C@H](CCCCN)NC(=O)[C@@H]1CCCN1C(=O)[C@H](CCC(N)=O)NC(=O)[C@@H](N)CCCN=C(N)N)C(=O)N1CCC[C@H]1C(=O)N[C@@H](CCCN=C(N)N)C(=O)N[C@@H](CCSC)C(=O)N1CCC[C@H]1C(=O)N[C@@H](Cc1c[nH]c2ccccc12)C(=O)N[C@@H](CCCN=C(N)N)C(N)=O` [RQPKIPRMPWR]: the MIC is above 34.1 µM in test [1]; at least 34.1 µM in the test on Salmonella sp.; at least 34.1 µM in test [18]; above 34.1 µM in [19]; above 34.1 µM in the test with Escherichia coli; at least 34.1 µM against Yersinia enterocolitica. Besides, the MIC in test [9] was above 34.1 µM.
As to `CC[C@H](C)[C@H](NC(=O)CNC(=O)[C@H](CCC(=O)O)NC(=O)[C@H](Cc1c[nH]c2ccccc12)NC(=O)[C@@H](NC(=O)[C@@H](N)CO)[C@@H](C)CC)C(=O)N[C@@H](CCCCN)C(=O)N[C@@H](CC(N)=O)C(=O)N[C@@H](C)C(=O)NCC(=O)N[C@@H](CCCCN)C(=O)NCC(=O)N[C@@H](Cc1ccccc1)C(=O)N[C@@H](CC(C)C)C(=O)N[C@H](C(=O)N[C@@H](CO)C(=O)N[C@H](C(=O)N[C@@H](CC(C)C)C(=O)N[C@@H](CC(=O)O)C(=O)N[C@@H](CCCCN)C(=O)N[C@H](C(=O)N[C@@H](CCCN=C(N)N)C(=O)N[C@H]1CSSC[C@@H](C(=O)N[C@@H](CC(N)=O)C(=O)N2CCC[C@H]2C(=O)O)NC(=O)CNC(=O)CNC(=O)[C@H](C)NC(=O)[C@H](C(C)C)NC(=O)[C@H](CCCCN)NC1=O)C(C)C)[C@@H](C)CC)C(C)C` [SIWEGIKNAGKGFLVSILDKVRCKVAGGCNP], the MIC was 3.01 µM (≈ 9.79 µg/mL) in test [1], 19.6 µM (≈ 64 µg/mL) in test [20], 3.01 µM (≈ 9.79 µg/mL) in test [2] and 6.01 µM (≈ 19.6 µg/mL) against Escherichia coli O111.
